Laboratory results published in PubChem BioAssay (NCI).
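Briefly, cells in 96-well plates were exposed to five compound concentrations for 48 h, and endpoints were estimated by linear interpolation. GI50 marks 50% less growth. TGI denotes the concentration required for complete inhibition of growth.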

Tests used:
Assay in all cases: NCI tumour cell line growth inhibition, 48 h
[1] = test system: HOP-18 NSCLC
[2] = test system: RXF 393 renal
[3] = test system: HOP-62 NSCLC
[4] = test system: LOX IMVI melanoma
[5] = test system: HOP-92 NSCLC
[6] = test system: OVCAR-8 ovarian
[7] = test system: KM20L2 colon
[8] = test system: OVCAR-5 ovarian
[9] = test system: LXFL 529 NSCLC
[10] = test system: 786-0 renal
[11] = test system: HL-60(TB) leukemia
[12] = test system: U251 CNS
[13] = test system: OVCAR-3 ovarian
[14] = test system: HT29 colon
[15] = test system: UACC-257 melanoma
[16] = test system: SF-268 CNS
[17] = test system: SK-OV-3 ovarian
[18] = test system: HCT-15 colon

## O=C1C=CC=C[C@@H]2C(C3OCCO3)CC[C@H]12.[C-]#[O+].[C-]#[O+].[C-]#[O+].[Fe] (stereo not given in full)
[1]
  GI50: > 52.8 µM
  TGI: > 85.1 µM
[2]
  GI50: 23.4 µM
  TGI: 67 µM
[3]
  GI50: > 95.3 µM
  TGI: > 100 µM
[4]
  GI50: 1.09 µM
  TGI: 5.66 µM
[5]
  GI50: > 100 µM
  TGI: > 100 µM
[6]
  GI50: 24.8 µM
  TGI: 65.1 µM
[7]
  GI50: > 100 µM
  TGI: > 100 µM
[8]
  GI50: > 100 µM
  TGI: > 100 µM
[9]
  GI50: 15.6 µM
  TGI: 29.4 µM
[10]
  GI50: > 69.3 µM
  TGI: > 100 µM
[11]
  TGI: > 100 µM
[12]
  GI50: 44.7 µM
  TGI: > 82.5 µM
[13]
  GI50: 40.6 µM
  TGI: > 100 µM
[14]
  GI50: 42.6 µM
  TGI: > 100 µM
[15]
  GI50: 98.5 µM
  TGI: > 100 µM
[16]
  GI50: > 60 µM
  TGI: > 100 µM
[17]
  GI50: > 96 µM
  TGI: > 100 µM
[18]
  GI50: 55.7 µM
  TGI: > 95.4 µM
